Measurements taken from ChEMBL document CHEMBL1146224, “Design, synthesis, and characterization of novel iron chelators: structure-activity relationships of the 2-benzoylpyridine thiosemicarbazone series and their 3-nitrobenzoyl analogues as potent antitumor agents” (J Med Chem, 2007).

Legend:
MRC5 = experiment: Antiproliferative activity against human MRC5 cells after 72 hrs by MTT assay; type: cell-based; conditions: MRC5, 72 h
[1] = Partition coefficient, log P of the compound; type: physicochemical; conditions: octanol/water
SK-N-MC [2] = experiment: cells; conditions: Homo sapiens, 72 h
Description: Antiproliferative activity against human SK-N-MC cells after 72 hrs by MTT assay

SK-N-MC [3] = experiment: Inhibition of iron uptake from transferrin in SK-N-MC cells at 50 uM relative to control; type: functional, Homo sapiens; design: scale not given: the % may be the effect or the level left
SK-N-MC [4] = experiment: Effect on iron release in SK-N-MC cells; type: functional, Homo sapiens

SMILES | logP [1] | IC50 (SK-N-MC [2]) | IC50 (MRC5) | Activity (SK-N-MC [3]) | Activity (SK-N-MC [4])
CNC(=S)N/N=C(\c1cccc([N+](=O)[O-])c1)c1ccccn1 | 2.14 | 130 nM | – | 8% | –
Cc1ncc(CO)c(/C=N/NC(=O)c2ccncc2)c1O [PYRIDOXAL ISONICOTINOYL HYDRAZONE] | – | – | – | 21% | –
O=C(N/N=C/c1c(O)ccc2ccccc12)c1ccncc1 | – | 710 nM | – | 9% | –
CNC(=S)N/N=C(\c1ccccc1)c1ccccn1 | 0.74 | 4 nM | > 6250 nM | – | –
NC(=S)N/N=C/c1ncccc1N [TRIAPINE] | – | 260 nM | – | – | –
NC(=S)N/N=C(\c1cccc([N+](=O)[O-])c1)c1ccccn1 | 1.9 | 3820 nM | – | 7% | 43%
CCNC(=S)N/N=C(\c1cccc([N+](=O)[O-])c1)c1ccccn1 | 2.53 | 14 nM | 2310 nM | – | –

The remaining compounds from weak to strong by IC50 (SK-N-MC [2]), led by results:

logP [1] | IC50 (SK-N-MC [2]) | SMILES | IC50 (MRC5) | Activity (SK-N-MC [3]) | Activity (SK-N-MC [4])
1.92 | 4660 nM | NC(=S)N/N=C(\c1ccccc1)c1ccccn1 | – | – | 23%
– | 4510 nM | CC(=O)N(O)CCCCCNC(=O)CCC(=O)N(O)CCCCCNC(=O)CCC(=O)N(O)CCCCCN [DEFEROXAMINE] | – | – | 7%
1.7 | 13 nM | C=CCNC(=S)N/N=C(\c1cccc([N+](=O)[O-])c1)c1ccccn1 | 2390 nM | 11% | –
1.92 | 5 nM | S=C(N/N=C(\c1ccccc1)c1ccccn1)Nc1ccccc1 | 1860 nM | – | –
2.69 | 4 nM | C=CCNC(=S)N/N=C(\c1ccccc1)c1ccccn1 | > 6250 nM | – | –
1.29 | 4 nM | CN(C)C(=S)N/N=C(\c1ccccc1)c1ccccn1 | > 6250 nM | – | –
4.01 | 2 nM | CCNC(=S)N/N=C(\c1ccccc1)c1ccccn1 | > 6250 nM | – | –
– | 1 nM | CN(C)C(=S)NN=C(c1ccccn1)c1ccccn1 | – | – | –
